Measured values: patent publication US8138168B1 (Takeda Pharmaceutical Company Limited, priority 2007, dated 2012)
pIC50: −log10 of the molar value. Where two headings read alike, the source gives them in different places.

Biological target: T1, Recombinant human renin (Homo sapiens, UniProt P00797)
T1 construct: isolate the active form (residues 67-406); made in house; host or cells: FreeStyle 293-F cells (transient expression of pcDNA3.1(+)/hREN)
T1 sequence (P00797 67-406): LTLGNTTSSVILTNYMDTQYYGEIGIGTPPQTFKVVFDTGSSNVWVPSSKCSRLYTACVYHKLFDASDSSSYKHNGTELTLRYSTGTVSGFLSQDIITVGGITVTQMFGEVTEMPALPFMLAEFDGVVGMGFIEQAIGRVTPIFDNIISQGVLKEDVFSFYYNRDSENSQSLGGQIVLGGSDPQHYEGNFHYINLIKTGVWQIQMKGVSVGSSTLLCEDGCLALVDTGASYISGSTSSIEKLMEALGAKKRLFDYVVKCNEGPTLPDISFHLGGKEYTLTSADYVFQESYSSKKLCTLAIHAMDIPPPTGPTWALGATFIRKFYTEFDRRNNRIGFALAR
Assay: In vitro enzymatic activity assay of renin inhibitors (fluorogenic peptide substrate)
Assay type: biochemical
How it was run: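 Enzyme: recombinant human renin, 3 nM final, 10 min compound pre-incubation at 37 °C; buffer 50 mM Hepes pH 7.4 with 0.1 mg/mL BSA or extra 2% BSA; 5% DMSO.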

[1] = read-out: IC50 of Exemplified Compounds Against Renin

## COCCCn1c([C@@H]2CCCN(C(=O)[C@@H]3CN(C(=O)Nc4ccccc4)C[C@H]3N)C2)nc2ccccc21 [Compound 404, (3S,4R)-3-amino-4-((R)-3-(1-(3-methoxypropyl)-1H-benzo[d]imidazol-2-yl)piperidine-1-carbonyl)-N-phenylpyrrolidine-1-carboxamide]
[1]
  pIC50: < 6.00

## COCCCn1c([C@@H]2CCCN(C(=O)C[C@H](N)Cc3cc(F)c(F)cc3F)C2)nc2ccccc21 [Compound 86, (R)-3-amino-1((R)-3-(1-(3-methoxypropyl)-1H-benzo[d]imidazol-2-yl)piperidin-1-yl)-4-(2,4,5-trifluorophenyl)butan-1-one]
[1]
  pIC50: 6.00 to 7.00

## COCCCn1c([C@@H]2CCCN(C(=O)[C@@H]3CN(C(=O)c4cccc5ccccc45)C[C@H]3N)C2)nc2ccccc21 [Compound 376, ((3R,4S)-1-(1-naphthoyl)-4-aminopyrrolidin-3-yl)((R)-3-(1-(3-methoxypropyl)-1H-benzo[d]imidazol-2-yl)piperidin-1-yl)methanone]
[1]
  pIC50: 6.00 to 7.00

## COCCCn1c([C@@H]2CCCN(C(=O)C[C@H](N)CNC(=O)Nc3cccc(Cl)c3)C2)nc2ccccc21 [Compound 256, 1-((S)-2-ainino-4-((R)-3-(1-(3-methoxypropyl)-1H-benzo[d]imidazol-2-yl)piperidin-1-yl)-4-oxobutyl)-3-(3-chlorophenyl)urea]
[1]
  pIC50: > 7.00

## COCCCn1c([C@@H]2CCCN(C(=O)C[C@H](N)Cc3ccc4ccccc4c3)C2)nc2ccc(C#N)cc21 [Compound 109, 2-((R)-1-((R)-3-amino-4-(naphthalen-2-yl)butanoyl)piperidin-3-yl)-1-(3-methoxypropyl)-1H-benzo[d]imidazole-6-carbonitrite]
[1]
  pIC50: 6.00 to 7.00

## COCCCn1c([C@@H]2CCCN(C(=O)C[C@H](N)CNC(=O)Nc3ccc(Cl)cc3)C2)nc2ccccc21 [Compound 283, 1-((S)-2-amino-4-((R)-3-(1-(3-methoxypropyl)-1H-benzo[d]imidazol-2-yl)piperidin-1-yl)-4-oxobutyl)-3-(4-chlorophenyl)urea]
[1]
  pIC50: 6.00 to 7.00

## COCCCn1c([C@@H]2CCCN(C(=O)[C@@H]3CN(C(=O)c4cccc(F)c4)C[C@H]3N)C2)nc2ccccc21 [Compound 393, ((3R,4S)-4-amino-1-(3-fluorobenzoyl)pyrrolidin-3-yl)((R)-3-(1-(3-methoxypropyl)-1H-benzo[d]imidazol-2-yl)piperidin-1-yl)methanone]
[1]
  pIC50: < 6.00

## CC(=O)NCCn1c([C@@H]2CCCN(C(=O)C[C@H](N)Cc3ccc(-c4ccc5c(c4)OCCO5)cc3)C2)nc2c(C)cccc21 [Compound 477, N-(2-(2-((R)-1-((R)-3-amino-4-(4-(2,3-dihydrobenzo[b][1,4]dioxin-6-yl)phenyl)butanoyl)piperidin-3-yl)-4-methyl-1H-benzo[d]imidazol-1-yl)ethyl)acetamide]
[1]
  pIC50: 6.00 to 7.00

## COCCCn1c([C@@H]2CCCN(C(=O)C[C@H](N)Cc3ccc(-c4ccc(O)nc4)cc3)C2)nc2c(F)cccc21 [Compound 451, (R)-3-amino-1-((R)-3-(4-fluoro-1-(3-methoxypropyl)-1H-benzo[d]imidazol-2-yl)piperidin-1-yl)-4-(4-(6-hydroxypyridin-3-yl)phenyl)butan-1-one]
[1]
  pIC50: > 7.00

## COCCCn1c([C@@H]2CCCN(C(=O)C[C@H](N)Cc3ccc(-c4cncnc4)cc3)C2)nc2ccccc21 [Compound 149, (R)-3-Amino-1-((R)-3-(1-(3-methoxypropyl)-1H-benzo[d]imidazol-2-yl)piperidin-1-yl)-4-(4-(pyrimidin-5-yl)phenyl)butan-1-one]
[1]
  pIC50: > 7.00

## COCCCn1c([C@@H]2CCCN(C(=O)C[C@H](N)CNC(=O)c3cccc(F)c3)C2)nc2ccccc21 [Compound 318, N-((S)-2-amino-4-((R)-3-(1-(3-methoxypropyl)-1H-benzo[d]imidazol-2-yl)piperidin-1-yl)-4-oxobutyl)-3-fluorobenzamide]
[1]
  pIC50: 6.00 to 7.00

## COCCCn1c([C@@H]2CCCN(C(=O)C[C@H](N)Cc3cccc(-c4ccccc4)c3)C2)nc2ccccc21 [Compound 122, (R)-3-amino-4-(biphenyl-3-yl)-1-((R)-3-(1-(3-methoxypropyl)-1H-benzo[d]imidazol-2-yl)piperidin-1-yl)butan-1-one]
[1]
  pIC50: > 7.00

## O=C(Nc1ccc2c(c1)OCO2)N1CCCC(c2nc3ccccc3[nH]2)C1 (stereo not drawn) [Compound 11, N-(benzo[d][1,3]dioxol-5-yl)-3-(1H-benzo[d]imidazol-2-yl)piperidine-1-carboxamide]
[1]
  pIC50: < 6.00

## CC(=O)NCCn1c([C@@H]2CCCN(C(=O)C[C@H](N)Cc3ccc(-c4ccnc(O)c4)cc3)C2)nc2ccccc21 [Compound 461, N-(2-(2-((R)-1-((R)-3-amino-4-(4-(2-hydroxypyridin-4-yl)phenyl)butanoyl)piperidin-3-yl)-1H-benzo[d]imidazol-1-yl)ethyl)acetamide]
[1]
  pIC50: 6.00 to 7.00

## COCCCn1c([C@@H]2CCCN(C(=O)C[C@H](N)CNC(=O)Nc3ccc(OC)cc3)C2)nc2ccccc21 [Compound 253, 1-((S)-2-amino-4-((R)-3-(1-(3-methoxypropyl)-1H-benzo[d]imidazol-2-yl)piperidin-1-yl)-4-oxobutyl)-3-(4-methoxyphenyl)urea]
[1]
  pIC50: > 7.00

## COCCCn1c([C@@H]2CCCN(C(=O)C[C@H](N)Cc3ccc(-c4ccc(NC(=O)C(C)(C)O)cc4)cc3)C2)nc2ccccc21 [Compound 199, N-(4′-((R)-2-amino-4-((R)-3-(1-(3-methoxypropyl)-1H-benzo[d]imidazol-2-yl)piperidin-1-yl)-4-oxobutyl)biphenyl-4-yl)-2-hydroxy-2-methylpropanamide]
[1]
  pIC50: > 7.00

## COCCCn1c([C@@H]2CCCN(C(=O)C[C@H](N)Cc3ccc(-c4ccc(NC(=O)CO)cc4)cc3)C2)nc2ccccc21 [Compound 198, N-(4′-((R)-2-Amino-4-((R)-3-(1-(3-methoxypropyl)-1H-benzo[d]imidazol-2-yl)piperidin-1-yl)-4-oxobutyl)biphenyl-4-yl)-2-hydroxyacetamide]
[1]
  pIC50: > 7.00

## COCCCn1c([C@@H]2CCCN(C(=O)[C@@H]3CN(C(=O)Oc4ccc(Cl)cc4)C[C@H]3N)C2)nc2ccccc21 [Compound 407, (3S,4R)-4-chlorophenyl 3-amino-4-((R)-3-(1-(3-methoxypropyl)-1H-benzo[d]imidazol-2-yl)piperidine-1-carbonyl)pyrrolidine-1-carboxylate]
  pIC50: < 6.00

## COCCCn1c([C@@H]2CCCN(C(=O)C[C@H](N)Cc3ccc(-c4cccnc4)cc3)C2)nc2ccccc21 [Compound 125, (R)-3-amino-1-((R)-3-(1-(3-methoxypropyl)-1H-benzo[d]imidazol-2-yl)piperidin-1-yl)-4-(4-(pyridin-3-yl)phenyl)butan-1-one]
[1]
  pIC50: > 7.00

## NC(=O)CCn1c([C@@H]2CCCN(C(=O)C[C@H](N)Cc3ccc(-c4ccccc4)cc3)C2)nc2ccccc21 [Compound 485, 3-(2-((R)-1-((R)-3-amino-4-(biphenyl-4-yl)butanoyl)piperidin-3-yl)-1H-benzo[d]imidazol-1-yl)propanamide]
[1]
  pIC50: < 6.00

## COCCCn1c([C@@H]2CCCN(C(=O)C[C@H](N)Cc3ccc(-c4ccc5c(c4)CC(=O)N5)cc3)C2)nc2c(F)cccc21 [Compound 458, 5-(4-((R)-2-amino-4-((R)-3-(4-fluoro-1-(3-methoxypropyl)-1H-benzo[d]imidazol-2-yl)piperidin-1-yl)-4-oxobutyl)phenyl)indolin-2-one]
[1]
  pIC50: > 7.00

## COCCCn1c([C@@H]2CCCN(C(=O)[C@@H]3CN(S(=O)(=O)c4ccc5[nH]c(=O)[nH]c5c4)C[C@H]3N)C2)nc2ccccc21 [Compound 338]
[1]
  pIC50: > 7.00

## CC(=O)NCCn1c([C@@H]2CCCN(C(=O)C[C@H](N)Cc3ccc(-c4ccc(N)nc4)cc3)C2)nc2c(C)cccc21 [Compound 471, N-(2-(2-((R)-1-((R)-3-amino-4-(4-(6-aminopyridin-3-yl)phenyl)butanoyl)piperidin-3-yl)-4-methyl-1H-benzo[d]imidazol-1-yl)ethyl)acetamide]
[1]
  pIC50: 6.00 to 7.00

## COCCCn1c([C@@H]2CCCN(C(=O)C[C@H](N)Cc3ccc(-c4ccc(C(=O)NCC(C)(C)O)cc4)cc3)C2)nc2ccccc21 [Compound 188, 4′-((R)-2-amino-4-((R)-3-(1-(3-methoxypropyl)-1H-benzo[d]imidazol-2-yl)piperidin-1-yl)-4-oxobutyl)-N-(2-hydroxy-2-methylpropyl)biphenyl-4-carboxamide]
[1]
  pIC50: > 7.00

## COCCCn1c([C@@H]2CCCN(C(=O)C[C@H](N)CNC(=O)c3ccc(-c4ccccc4)cc3)C2)nc2ccccc21 [Compound 264, N-((S)-2-amino-4-((R)-3-(1-(3-methoxypropyl)-1H-benzo[d]imidazol-2-yl)piperidin-1-yl)-4-oxobutyl)biphenyl-4-carboxamide]
[1]
  pIC50: 6.00 to 7.00

## COCCCn1c([C@@H]2CCCN(C(=O)C[C@H](N)Cc3ccc(-c4ccc5oc(N)nc5c4)cc3)C2)nc2c(F)cccc21 [Compound 463, (R)-3-amino-4-(4-(2-aminobenzo[d]oxazol-5-yl)phenyl)-1-((R)-3-(4-fluoro-1-(3-methoxypropyl)-1H-benzo[d]imidazol-2-yl)piperidin-1-yl)butan-1-one]
[1]
  pIC50: > 7.00

## COCCCn1c([C@@H]2CCCN(C(=O)[C@@H]3CN(S(=O)(=O)c4ccc(OC)c(OC)c4)C[C@H]3N)C2)nc2ccccc21 [Compound 372, ((3R,4S)-4-amino-1-(3,4-dimethoxyphenylsulfonyl)pyrrolidin-3-yl)((R)-3-(1-(3-methoxypropyl)-1H-benzo[d]imidazol-2-yl)piperidin-1-yl)methanone]
[1]
  pIC50: 6.00 to 7.00
